Measurements taken from ChEMBL document CHEMBL1121673, “Diuretic agents related to indapamide. 1. Synthesis and activity of 1-substituted 2-(4-chloro-3-sulfamoylbenzamido)isoindolines” (1981).

Tests used:
Format in all cases: functional
[1] = Ratio of amount of Na+ excreted to amount of K+ excreted in urine of rat of protocol A-1 test
Rattus norvegicus [2] = assay: Total volume of urine excreted during 18 hours after single administration of 5 mg/kg of the test agent (protocol A-1) on 6 rats
Rattus norvegicus [3] = assay: Total volume of urine excreted during 18 hours after single administration of 5 mg/kg of the test agent (protocol A-2) on 11 rats
Rattus norvegicus [4] = assay: Amount of potassium ions excreted during 18 hours after single administration of 5 mg/kg of the test agent (protocol A-1) on 6 rats
Rattus norvegicus [5] = assay: Amount of potassium ions excreted during 18 hours after single administration of 5 mg/kg of the test agent (protocol A-2) on 11 rats
Rattus norvegicus [6] = assay: Total volume of urine excreted during 4 hr after oral administration of 5 mg/kg of the test agent (protocol B) on 5 male and female rats
[7] = Ratio of amount of Na+ excreted to amount of K+ excreted in urine of water-loaded rats
[8] = Ratio of amount of Na+ excreted to amount of K+ excreted in urine of rat of protocol A-2 test
Rattus norvegicus [9] = assay: Amount of potassium ions excreted during 4 hr after oral administration of 5 mg/kg of the test agent (protocol B) on 5 male and female rats
Rattus norvegicus [10] = assay: Amount of sodium ions excreted during 18 hours after single administration of 5 mg/kg of the test agent (protocol A-1) on 6 rats
Rattus norvegicus [11] = assay: Amount of sodium ions excreted during 18 hours after single administration of 5 mg/kg of the test agent (protocol A-2) on 11 rats
Rattus norvegicus [12] = assay: Amount of sodium ions excreted during 4 hr after oral administration of 5 mg/kg of the test agent (protocol B) on 5 male and female rats
Rattus norvegicus [13] = assay: Amount of potassium ions excreted during 18 hours after single administration of 5 mg/kg of the test agent (protocol A-2) on 6 rats
Rattus norvegicus [14] = assay: Total volume of urine excreted during 18 hours after single administration of 5 mg/kg of the test agent (protocol A-2) on 6 rats
Rattus norvegicus [15] = assay: Amount of sodium ions excreted during 18 hours after single administration of 5 mg/kg of the test agent (protocol A-2) on 6 rats

| SMILES | Ratio [1] | Urine (Rattus norvegicus [2]) | Urine (Rattus norvegicus [3]) | Urine K+ (Rattus norvegicus [4]) | Urine K+ (Rattus norvegicus [5]) | Urine (Rattus norvegicus [6]) | Ratio [7] | Ratio [8] | Urine K+ (Rattus norvegicus [9]) | Urine Na+ (Rattus norvegicus [10]) | Urine Na+ (Rattus norvegicus [11]) | Urine Na+ (Rattus norvegicus [12]) | Urine K+ (Rattus norvegicus [13]) | Urine (Rattus norvegicus [14]) | Urine Na+ (Rattus norvegicus [15]) |
| --- | --- | --- | --- | --- | --- | --- | --- | --- | --- | --- | --- | --- | --- | --- | --- |
| NS(=O)(=O)c1cc(C(=O)NN2Cc3ccccc3C2C(=O)O)ccc1Cl (stereo not drawn) | 0.984 | 9.36 mL | 9.36 mL | 1.569 m equiv | 2.075 m equiv | 87.1 mL | 0.855 | 1.0809 | 0.1305 m equiv | 1.59 m equiv | 2.199 m equiv | 0.109 m equiv |  |  |  |
| CC1Cc2ccccc2N1NC(=O)c1ccc(Cl)c(S(N)(=O)=O)c1 (stereo not drawn) [INDAPAMIDE] | 1.143 | 12.83 mL |  | 2.198 m equiv |  | 130.6 mL | 2.738 | 1.0526 | 0.2686 m equiv | 2.563 m equiv |  | 0.705 m equiv | 2.78 m equiv | 16.67 mL | 2.947 m equiv |
| CC1c2ccccc2CN1NC(=O)c1ccc(Cl)c(S(N)(=O)=O)c1 (stereo not drawn) [ZIDAPAMIDE] | 1.128 | 11.67 mL |  | 1.976 m equiv |  | 127 mL | 3.11 | 1.2204 | 0.2398 m equiv | 2.193 m equiv |  | 0.6927 m equiv | 2.56 m equiv | 16.17 mL | 3.058 m equiv |
| NS(=O)(=O)c1cc(C(=O)NN2Cc3ccccc3C2CO)ccc1Cl (stereo not drawn) | 1.084 | 11.17 mL | 11.45 mL | 1.486 m equiv | 1.512 m equiv | 106 mL | 1.638 | 0.943 | 0.1657 m equiv | 1.622 m equiv | 1.414 m equiv | 0.2629 m equiv |  |  |  |
